Reference: patent publication US10975357B2, “Methods and compositions related to differentiated lung cells” (TRUSTEES OF BOSTON UNIVERSITY, priority 2017, dated 2021)

Experiments:
Assay type in all cases: cell-based, human
TNFa/NFkB pathway = test: Cytokine stimulation of PSC-derived alveolospheres, TNFa/NFkB pathway (Western blot IkB, IL8 and GM-CSF RT-qPCR); conditions: TNFa 10 ng/ml and IL1b 10 ng/ml given together
Description: (§1) Where indicated in the text, outgrowth and distal/alveolar differentiation of cells after day 15 was performed in “CK+DCI” medium, consisting of cSFDM base, with 3 μM CHIR99021, 10 ng/mL rhKGF, and 50 nM dexamethasone (Sigma), 0.1 mM 8-Bromoadenosine 3′,5′-cyclic monophosphate sodium salt (Sigma) and 0.1 mM 3-Isobutyl-1-methylxanthine (IBMX) (Sigma) (DCI). Immediately after replating cells on Day 15 10 μM Y-27632 was added to the medium for 24 hours. Additional growth factors or cytokines were added or withdrawn as indicated in the text, including FGF10, TGFb, EGF, OSM (20 ng/ml), TNFa (10 ng/ml), and IL-1b (10 ng/ml) with other concentrations listed in figure legends (FIGS. 9A, 9B).
Reverse Transcriptase Quantitative Real Time Polymerase Chain Reaction (RT-qPCR). RT-qPCR was performed as previously described (Hawkins et al. 2017,). Briefly, RNA was isolated according to manufacturer's instructions using the Qiagen miRNeasy mini kit (Qiagen, Venlo, Netherlands). cDNA was generated by reverse transcription of up to 150 ng RNA from each sample using the Applied Biosystems High-Capacity cDNA Reverse Transcription Kit. […] Relative gene expression was calculated based on the average cycle (Ct) value of the technical triplicates, normalized to 18S control, and reported as fold change (2(−ΔΔCT)), with a fold change of 1 being assigned to undifferentiated (day 0) iPSCs or ESCs. […]

[1] = test system: NKX2-1+ lung epithelial progenitor cells; test: SFTPCtdTomato reporter induction in day 15 NKX2-1+ progenitor outgrowth in 3D culture (flow cytometry)
Description: Purification of NKX2-1+ Lung Progenitors by Cell Sorting. On day 15 of differentiation, cells were incubated at 37° C. in 0.05% trypsin-EDTA (Invitrogen) for 7-15 minutes, until they reached single cell suspension. Cells were then washed in media containing 10% fetal bovine serum (FBS, ThermoFisher), centrifuged at 300g×5 minutes, and resuspended in sort buffer containing Hank's Balanced Salt Solution (ThermoFisher), 2% FBS, 10 μM Y-27632, and 10 uM calcein blue AM (Life Technologies) for dead cell exclusion. Cells not containing the NKX2-1GFP reporter were subsequently stained with CD47-PerCPCy5.5 and CD26-PE antibodies (mouse monoclonal; Biolegend 1:200; 1×10^6 cells in 100 ul) for 30 minutes at 4° C., washed with PBS, and resuspended in sort buffer. Cells were passed through a 40 um strainer prior to sorting (Falcon). Various live cell populations indicated in the text (i.e. GFP+, GFP−, CD47hi/CD26−,CD47lo) were sorted on a high-speed cell sorter (MoFlo Legacy). Directed Differentiation of NKX2-1+ Lung Progenitor Outgrowth into iAEC2s Day 15 cells, either sorted (as described above) or unsorted (dissociated as described above), were resuspended in undiluted growth factor-reduced matrigel (Corning) at a dilution of 50-100 cells/ul, with droplets ranging in size from 20 ul in 96 well plates to 1 ml in 10 cm tissue culture-treated dishes (Corning). Cells in matrigel suspension were incubated at 37° C. for 20-30 minutes, then warm media was added to the plates. […]
Alveolosphere Long Term Culture, Dissociation, and Differentiation. […] These spheres were analyzed as follows: Z-stack images of live alveolospheres were taken and processed on a Keyence (Osaka, Japan) BZ-X700 fluorescence microscope. […] To generate single cell suspensions, cell pellets were incubated in 0.05% trypsin and continued through the trypsin-based dissociation protocol described above, after which they could be passaged into fresh matrigel, analyzed by flow cytometry, or sorted as described above. […]

[2] = test system: BU3 NKX2-1GFP+/SFTPCtdTomato- population; test: Late CHIR withdrawal from sorted NKX2-1GFP+/SFTPCtdTomato- population in 3D culture; conditions: CHIR withdrawn for 10 days (days 40-50), cells sorted day 38
Description: as §1
(§2) Alveolosphere Long Term Culture, Dissociation, and Differentiation. Alveolospheres developed in 3D matrigel culture outgrowths within 3-7 days after day 15 replating, and were maintained in CK+DCI media for weeks to months, as indicated in the text. These spheres were analyzed as follows: Z-stack images of live alveolospheres were taken and processed on a Keyence (Osaka, Japan) BZ-X700 fluorescence microscope. […] To generate single cell suspensions, cell pellets were incubated in 0.05% trypsin and continued through the trypsin-based dissociation protocol described above, after which they could be passaged into fresh matrigel, analyzed by flow cytometry, or sorted as described above. […]

RUES2 alveolospheres = test: CHIR addback after 1-week withdrawal in alveolospheres; conditions: CHIR withdrawn week 4-5, added back week 5-6
Description: as §1, §2

For TNFa, the “NFkB signaling (IkB protein decrease, IL8 and GM-CSF expression)” value (TNFa/NFkB pathway) was “activated NFkB signaling”.

In the case of `Cc1c[nH]c(-c2cnc(NCCNc3ccc(C#N)cn3)nc2-c2ccc(Cl)cc2Cl)n1` [CHIR, CHIR99021, reference compound], the “emergence of SFTPC+ cells from NKX2-1+ precursors in presence of Wnt stimulation via CHIR” value ([1]; 17-22 total differentiation days) is reported as 2 to 7 days, the “cells with induction of the SFTPCtdTomato reporter” value ([1]; sorted NKX2-1GFP+ cells, by day 21, presence of CHIR in K+DCI base media) is reported as 7.17+/−0.89% and the “efficiency of differentiation into SFTPC+ progeny after withdrawal of CHIR” value [2] is reported as 68.7%. The “effect of re-exposure to CHIR after 1-week withdrawal” value (RUES2 alveolospheres) was “maintained expression of the SFTPCtdTomato reporter and increased proliferation”.

In the case of IL1b: Recombinant human IL1-b, the “NFkB signaling (IkB protein decrease, IL8 and GM-CSF expression)” value (TNFa/NFkB pathway) is reported as “activated NFkB signaling”.

“EGF: Recombinant mouse EGF (NSYPGCPSSYDGYCLNGGVCMHIESLDSYTCNCVIGYSGDRCQTRDLRWWELR; UniProt P01132 977-1029, looked up)” was tested, and the “further SFTPC induction efficiency with addition of the factor” value ([1]; factor added to differentiation media, FIG. 9B) was “No consistent further SFTPC induction efficiency”.
